Assay results from patent US20080003684A1, “DIAGNOSTIC METHOD FOR MYOPATHY” (priority 2006, published 2008).

How the values were obtained:
human skeletal muscle [1] = experiment: Whole genome microarray analysis in muscle biopsies, single-gene analysis; details: high dose statin treatment, criteria 1.5-fold change and p-value <0.05
human skeletal muscle [2] = experiment: Gene set enrichment analysis (GSEA) of muscle microarray data; details: high dose statin treatment, FDR<0.25
ALOX5AP = experiment: RealTime Quantitative TaqMan PCR of muscle RNA; type: in vivo, human; details: n=5, p=0.041
Procedure: (§1) Based on a hierarchical cluster analysis (described in Example 1) 20 genes were selected for further RT-PCR control in order to identify a gene expression based fingerprint for statin effect on human skeletal muscle.
(§2) The microarray expression results recorded in the simvastatin group (n=5, for one case there was not enough muscle RNA for PCR) were verified by RealTime Quantitative TaqMan PCR. Previously purified cRNA was used as starting material for cDNA synthesis. A 1000 ng-18 μl aliquote of cRNA was mixed with 1 μl Promega Random Primer (C1181, Promega U.S., Madison, Wis., USA) and incubated in +70° C. for 10 min. The following reagents were added leading to 25 μl total reaction volume: 1 μl of 10 μM dNTP blend (F09892, Applied Biosystems, Foster City, Calif., USA), 1 μl of Promega M-MLV Reverse Transcriptase 200 U/μl (M3682) and 4 μl of M-MLV RT 5× reaction buffer. Finally the incubations were performed in the following order: 10 min in RT, 50 min in 45° C., and, 10 min in 70° C. 10 μl volume was used for PCR reaction, consisting of 2 μl aliquote of 1:10 diluted cDNA sample, and, Abgene ABsolute 2×QPCR ROX mix (AB-1139, Abgene, Epsom, UK). The primer concentrations were 300 nM, probe concentrations for Universal Probe Library (Exiqon, Vedbaek, Denmark) probes 100 nM and for ordinary long probes 200 nM. Finally the PCR reactions were performed in rtPCR system (ABI Prism 7700 Sequence Detection System, Applied Biosystems) having the following PCR procedure: 95° C. for 15 min, and 40 cycles of 95° C. for 15 s and 60° C. for 1 min.

MYBPH = experiment: RealTime Quantitative TaqMan PCR of muscle RNA; type: in vivo, human; details: n=5, p=0.027
Procedure: as §1, §2

COL3A1 = experiment: RealTime Quantitative TaqMan PCR of muscle RNA; type: in vivo, human; details: n=5, p=0.026
Procedure: as §1, §2

MYL5 = experiment: RealTime Quantitative TaqMan PCR of muscle RNA; type: in vivo, human; details: n=5, p=0.021
Procedure: as §1, §2

CCL5 = experiment: RealTime Quantitative TaqMan PCR of muscle RNA; type: in vivo, human; details: n=5, p=0.011
Procedure: as §1, §2

Row | SMILES | number of genes whose expression changed significantly during the intervention (human skeletal muscle [1]) | number of pathways up-regulated / affected in GSEA (human skeletal muscle [2]) | number of genes up-regulated (human skeletal muscle [1]) | ALOX5AP expression change by RT-PCR (ALOX5AP) | MYBPH expression change by RT-PCR (MYBPH) | COL3A1 expression change by RT-PCR (COL3A1) | MYL5 expression change by RT-PCR (MYL5) | CCL5 expression change by RT-PCR (CCL5)
1 | CC(C)c1c(C(=O)Nc2ccccc2)c(-c2ccccc2)c(-c2ccc(F)cc2)n1CC[C@@H](O)C[C@@H](O)CC(=O)O [atorvastatin] | five | no pathways appeared to be affected significantly |  |  |  |  |  | 
2 | CCC(C)(C)C(=O)O[C@H]1C[C@@H](C)C=C2C=C[C@H](C)[C@H](CC[C@@H]3C[C@@H](O)CC(=O)O3)[C@H]21 [simvastatin] | 111 genes | 143 pathways | 85 genes | +3.6 fold | +49.0 fold | +27.1 fold | +8.0 fold | +11.9 fold
